Assay results from PMC7179434, “1,2,4-Triazolo[1,5-a]pyrimidines as a Novel Class of Inhibitors of the HIV-1 Reverse Transcriptase-Associated Ribonuclease H Activity” (Molecules, 2020).
“Also recorded” adds a separate entry of the source. Where two headings read alike, the source gives them in different places.

Legend:
HIV-1 RNase H = biological target: HIV-1 RNase H; set-up: method as in ref 17-25, 27-29 (per compound as in Figure 1 legend); details: known allosteric RNHIs; 27-29 (per compound as in Figure 1 legend); cited from earlier work
HIV-1 RDDP = system: HIV-1 RDDP; set-up: method as in ref 17-21, 27-29 (per compound as in Figure 1 legend); details: known allosteric RNHIs; 27-29 (per compound as in Figure 1 legend); cited from earlier work
HIV-1 replication = details: 28 (per compound as in Figure 1 legend); cited from earlier work
HIV-1 RT-associated RDDP = HIV-1 RT-associated RDDP (Human immunodeficiency virus type 1 group M subtype B, UniProt P03366); assay: biochemical; format: biochemical
[1] = biological target: HIV-1 RT-associated RNase H (Human immunodeficiency virus type 1 group M subtype B, UniProt P03366); assay: biochemical; format: biochemical
HIV-2 (ROD strain) = assay: Anti-HIV-2 activity in acutely infected MT-4 cells (MTT); format: cell-based
HIV-1 (IIIB strain) = format: cell-based; details: acutely infected MT-4 cells
[2] = wt RT, average and standard deviation of three independent experiments in duplicate

Compound | IC50 (HIV-1 RT-associated RDDP) [µM] | IC50 [1] [µM] | melting point [°C] | also measured
O=C(O)c1ccc(-c2cccc(/C=N/NC(=O)c3ccc(O)c(O)c3)c2)cc1 [Compound 2] | – | – | – | IC50 (HIV-1 RNase H): 0.4 µM; IC50 (HIV-1 RDDP): > 50 µM
O=C1Nc2ccccc2/C1=N\Nc1nc(-c2ccc(O)c(O)c2)cs1 [Compound 3] | – | – | – | IC50 (HIV-1 RNase H): 2 µM; IC50 (HIV-1 RDDP): 1.4 µM; EC50 (HIV-1 replication) (HIV-1 replication): not active
N#Cc1ccc(-c2csc(N/N=C3/C(=O)Nc4ccccc43)n2)cc1 [Compound 4] | – | – | – | IC50 (HIV-1 RNase H): 1.3 µM; IC50 (HIV-1 RDDP): 9.8 µM
Cc1sc2nc(-c3ccc([N+](=O)[O-])cc3)[nH]c(=O)c2c1C [Compound 6] | – | – | – | IC50 (HIV-1 RNase H): 0.85 µM
O=C(Nc1sc2c(c1C(=O)Nc1ccccn1)CCCCC2)c1ccc(O)c(O)c1 [Compound 8] | – | – | – | IC50 (HIV-1 RNase H): 0.84 µM; IC50 (HIV-1 RDDP): 20.9 µM; EC50 (HIV-1 replication) (HIV-1 replication): not active
O=c1oc(-c2ccc(O)c(O)c2)nc2sc3ccccc3c12 [Compound 9] | – | – | – | IC50 (HIV-1 RNase H): 0.53 µM; IC50 (HIV-1 RDDP): 2.9 µM; EC50 (HIV-1 replication) (HIV-1 replication): not active
CCCCCCCC/C=C\CCCCCCCCNC(=O)/C=C/c1ccc(O)c(O)c1 [Compound 10] | – | – | – | IC50 (HIV-1 RNase H): 0.68 µM; IC50 (HIV-1 RDDP): 2.3 µM
CCCCOc1ccc(C(=O)Nc2nc3n(n2)C(c2ccccc2)C=C(C)N3)cc1 (centres unmarked) [Compound 11a] | > 100 | 17.7 ± 2.7 | – | –
CCCCc1ccc(C(=O)Nc2nc3n(n2)C(c2ccccc2)C=C(C)N3)cc1 (centres unmarked) [Compound 11b] | > 100 | 13.1 ± 2.2 | – | anti-HIV-2 (ROD strain) activity (HIV-2 (ROD strain)): none of the compounds having RNase H inhibition showed anti-HIV activity at concentrations lower than those cytotoxic; anti-HIV-1 (IIIB strain) activity (HIV-1 (IIIB strain)): none of the compounds having RNase H inhibition showed anti-HIV activity at concentrations lower than those cytotoxic
CCCCc1ccc(C(=O)Nc2nc3nc(C)cc(-c4ccccc4)n3n2)cc1 [Compound 12b, 4-Butyl-N-(5-methyl-7-phenyl-[1,2,4]triazolo[1,5-a]pyrimidin-2-yl)benzamide] | > 100 | 12.3 ± 1.5 | 157 to 158 | –
Cc1cc(-c2ccccc2)n2nc(NC(=O)c3ccccc3F)nc2n1 [Compound 12c, 2-Fluoro-N-(5-methyl-7-phenyl[1,2,4]triazolo[1,5-a]pyrimidin-2-yl)benzamide] | > 100 | > 100 | 292 to 302 | –
Cc1cc(-c2ccccc2)n2nc(NC(=O)c3ccc([N+](=O)[O-])cc3)nc2n1 [Compound 12d, N-(5-Methyl-7-phenyl-[1,2,4]triazolo[1,5-a]pyrimidin-2-yl)-4-nitrobenzamide] | > 100 | > 100 | 290 to 293 | –
Cc1cc(-c2ccccc2)n2nc(NC(=O)c3ccc(N)cc3)nc2n1 [Compound 12e, 4-Amino-N-(5-methyl-7-phenyl-[1,2,4]triazolo[1,5-a]pyrimidin-2-yl)benzamide] | > 100 | > 100 | 179 to 202 | –
COc1ccc(C(=O)Nc2nc3nc(C)cc(-c4ccccc4)n3n2)cc1OC [Compound 12f, 3,4-Dimethoxy-N-(5-methyl-7-phenyl-[1,2,4]triazolo[1,5-a]pyrimidin-2-yl)benzamide] | > 100 | > 100 | 131 to 151 | –
Cc1cc(-c2ccccc2)nc2nc(NC(=O)c3ccccc3F)nn12 [Compound 13c, 2-Fluoro-N-(7-methyl-5-phenyl-[1,2,4]triazolo[1,5-a]pyrimidin-2-yl)benzamide] | > 100 | > 100 | 165 to 169 | –
Cc1cc(-c2ccccc2)nc2nc(NC(=O)c3ccc([N+](=O)[O-])cc3)nn12 [Compound 13d, N-(7-Methyl-5-phenyl-[1,2,4]triazolo[1,5-a]pyrimidin-2-yl)-4-nitrobenzamide] | > 100 | 60.1 ± 3.3 | 316 to 318 | –

Compound | IC50 (HIV-1 RT-associated RDDP) [µM] | IC50 [1] [µM] | melting point [°C] | also measured
Cc1cc(-c2ccccc2)nc2nc(NC(=O)c3ccc(N)cc3)nn12 [Compound 13e, 4-Amino-N-(7-methyl-5-phenyl-[1,2,4]triazolo[1,5-a]pyrimidin-2-yl)benzamide] | > 100 | > 100 | 318 to 319 | –
COc1ccc(C(=O)Nc2nc3nc(-c4ccccc4)cc(C)n3n2)cc1OC [Compound 13f, 3,4-Dimethoxy-N-(7-methyl-5-phenyl-[1,2,4]triazolo[1,5-a]pyrimidin-2-yl)benzamide] | > 100 | > 100 | 175 to 179 | –
Cc1cc(-c2ccccc2)nc2nc(NC(=O)c3ccc(O)c(O)c3)nn12 [Compound 13g, 3,4-Dihydroxy-N-(7-methyl-5-phenyl-[1,2,4]triazolo[1,5-a]pyrimidin-2-yl)benzamide] | > 100 | 3.5 ± 1.5 | 298 to 312 | anti-HIV-2 (ROD strain) activity (HIV-2 (ROD strain)): none of the compounds having RNase H inhibition showed anti-HIV activity at concentrations lower than those cytotoxic; anti-HIV-1 (IIIB strain) activity (HIV-1 (IIIB strain)): none of the compounds having RNase H inhibition showed anti-HIV activity at concentrations lower than those cytotoxic
CCCCc1ccc(C(=O)Nc2nc3nc(C)cc(C)n3n2)cc1 [Compound 14b, 4-Butyl-N-(5,7-dimethyl-[1,2,4]triazolo[1,5-a]pyrimidin-2-yl)benzamide] | – | > 100 | 175 to 177 | HIV-1 RNaseH IC50 [1, 2]: complete loss of activity
Cc1cc(C)n2nc(NC(=O)c3ccccc3F)nc2n1 [Compound 14c, N-(5,7-Dimethyl-[1,2,4]triazolo[1,5-a]pyrimidin-2-yl)-2-fluorobenzamide] | > 100 | > 100 | 195 to 200 | –
Cc1cc(C)n2nc(NC(=O)c3ccc([N+](=O)[O-])cc3)nc2n1 [Compound 14d, N-(5,7-Dimethyl-[1,2,4]triazolo[1,5-a]pyrimidin-2-yl)-4-nitrobenzamide] | > 100 | > 100 | 273 to 276 | –
Cc1cc(C)n2nc(NC(=O)c3ccc(N)cc3)nc2n1 [Compound 14e, 4-Amino-N-(5,7-dimethyl-[1,2,4]triazolo[1,5-a]pyrimidin-2-yl)benzamide] | > 100 | > 100 | 248 to 258 | –
COc1ccc(C(=O)Nc2nc3nc(C)cc(C)n3n2)cc1OC [Compound 14f, N-(5,7-Dimethyl-[1,2,4]triazolo[1,5-a]pyrimidin-2-yl)-3,4-dimethoxybenzamide] | > 100 | > 100 | 190 to 194 | –
Cc1cc(C)n2nc(NC(=O)c3ccc(O)c(O)c3)nc2n1 [Compound 14g, N-(5,7-Dimethyl-[1,2,4]triazolo[1,5-a]pyrimidin-2-yl)-3,4-dihydroxybenzamide] | > 100 | 6.23 ± 0.01 | 299 to 301 | –
O=C(Nc1nc2nc(-c3ccccc3)cc(-c3ccccc3)n2n1)c1ccc(O)c(O)c1 [Compound 15g, N-(5,7-diphenyl-[1,2,4]triazolo[1,5-a]pyrimidin-2-yl)-3,4-dihydroxybenzamide] | 20.5 ± 4.1 | 1.86 ± 0.54 | 258 to 260 | fold weaker potency against RDDP than against RNase H (HIV-1 RT-associated RDDP; RDDP IC50 vs RNase H IC50): 10 fold; anti-HIV-2 (ROD strain) activity (HIV-2 (ROD strain)): none of the compounds having RNase H inhibition showed anti-HIV activity at concentrations lower than those cytotoxic; anti-HIV-1 (IIIB strain) activity (HIV-1 (IIIB strain)): none of the compounds having RNase H inhibition showed anti-HIV activity at concentrations lower than those cytotoxic
COc1ccc(-c2cc(C)nc3nc(N(C(=O)c4ccccc4)C(=O)c4ccccc4)nn23)cc1OC [Compound 16hh, N-benzoyl-N-(7-(3,4-dimethoxyphenyl)-5-methyl-[1,2,4]triazolo[1,5-a]pyrimidin-2-yl)benzamide] | > 100 | 6.74 ± 0.55 | – | HIV-1 RNaseH IC50 [1, 2]: low micromolar range
Cc1cc(-c2ccc(O)c(O)c2)n2nc(NC(=O)c3ccccc3)nc2n1 [Compound 17h, N-(7-(3,4-dihydroxyphenyl)-5-methyl-[1,2,4]triazolo[1,5-a]pyrimidin-2-yl)benzamide] | > 100 | 1.13 ± 0.33 | 260 to 263 | anti-HIV-2 (ROD strain) activity (HIV-2 (ROD strain)): none of the compounds having RNase H inhibition showed anti-HIV activity at concentrations lower than those cytotoxic; anti-HIV-1 (IIIB strain) activity (HIV-1 (IIIB strain)): none of the compounds having RNase H inhibition showed anti-HIV activity at concentrations lower than those cytotoxic
Cc1cc(-c2ccccc2)n2nc(C(=O)Nc3ccc(O)c(O)c3)nc2n1 [Compound 18g, N-(3,4-Dihydroxyphenyl)-5-methyl-7-phenyl-[1,2,4]triazolo[1,5-a]pyrimidine-2-carboxamide] | > 100 | 0.41 ± 0.005 | 278 to 281 | anti-HIV-2 (ROD strain) activity (HIV-2 (ROD strain)): none of the compounds having RNase H inhibition showed anti-HIV activity at concentrations lower than those cytotoxic; anti-HIV-1 (IIIB strain) activity (HIV-1 (IIIB strain)): did not result in anti-HIV-1 activity in cellular context; also recorded: none of the compounds having RNase H inhibition showed anti-HIV activity at concentrations lower than those cytotoxic
Cc1cc(-c2ccccc2)nc2nc(C(=O)Nc3ccc(O)c(O)c3)nn12 [Compound 19g, N-(3,4-Dihydroxyphenyl)-7-methyl-5-phenyl-[1,2,4]triazolo[1,5-a]pyrimidine-2-carboxamide] | – | 43.1 ± 2.1 | 247 to 250 | HIV-1 RNaseH IC50 [1, 2]: markedly decreased anti-RNase H activity
CCOC(=O)C(=O)CC(=O)C=Cc1cccn1Cc1ccc(F)cc1 [RDS1643, reference compound] | – | – | – | IC50 ([1]; wt RT, average and standard deviation of three independent experiments in duplicate, read-out: HIV-1 RNaseH IC50): 9 ± 2 µM
